From patent publication US11351173B2, “Substituted pyrrolo[1,2-a]pyrimidines and their use in the treatment of medical disorders” (Bial—R&D Investments, S.A., priority 2014, dated 2022)
≈ marks a conversion by molar mass, not a printed value.

Tests used:
[1] = Compound solubility in water; conditions: water; for solubility: Compound Solubility in Water
[2] = molecular target: T1, glucocerebrosidase (Gcase) (Homo sapiens, UniProt P04062); assay: Glucocerebrosidase (Gcase) activation assay, 4-methylumbelliferyl-beta-D-glucopyranoside substrate, fluorescence readout; assay type: biochemical; conditions: for Percent Gcase Activation, 0.1 μM Test Compound / activation at 0.1 µM: test compound at 0.1 μM; for Percent Gcase Activation, 1 μM Test Compound / activation at 1 µM: test compound at 1.0 μM; for activation at 0.1 µM: read-out: Percent Gcase Activation, 0.1 μM Test Compound; for activation at 1 µM: read-out: Percent Gcase Activation, 1 μM Test Compound
T1 construct: micellar solution containing 10 nM GCase and 100 nM saposin C
T1 sequence (P04062 40-536): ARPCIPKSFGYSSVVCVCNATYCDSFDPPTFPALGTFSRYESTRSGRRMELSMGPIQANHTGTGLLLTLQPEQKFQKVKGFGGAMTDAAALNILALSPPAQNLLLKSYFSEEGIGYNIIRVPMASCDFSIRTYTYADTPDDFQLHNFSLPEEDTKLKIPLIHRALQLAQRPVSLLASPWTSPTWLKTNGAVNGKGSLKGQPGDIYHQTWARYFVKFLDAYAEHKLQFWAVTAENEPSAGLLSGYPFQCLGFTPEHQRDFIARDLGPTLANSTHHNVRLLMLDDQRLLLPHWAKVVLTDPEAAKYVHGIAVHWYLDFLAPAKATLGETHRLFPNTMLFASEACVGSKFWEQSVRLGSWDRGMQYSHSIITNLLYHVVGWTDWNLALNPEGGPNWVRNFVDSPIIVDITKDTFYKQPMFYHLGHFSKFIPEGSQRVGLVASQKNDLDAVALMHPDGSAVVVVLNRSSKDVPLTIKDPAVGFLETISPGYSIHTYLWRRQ
In short: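 Test compounds are first screened at 1.0 and 0.1 μM final, then titrated in 8 points (3-fold from 5 μM) against human GCase with saposin C in phosphatidylserine/triton X-100 micelles at pH 4.7. Reactions run 15 min at room temperature, with fluorescence read at 365/440 nm.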

Compound | Compound Solubility in Water [1] [µg/mL] | Percent Gcase Activation, 0.1 μM Test Compound [2] | Percent Gcase Activation, 1 μM Test Compound [2] | solubility [1] [µg/mL] | activation at 0.1 µM [2] [%] | activation at 1 µM [2] [%]
Cc1cc(C)n2ccc(C(=O)NC3CCC4(CCCO4)C3)c2n1 (stereo not drawn) [III-147] | 20.4 | * (less than 10% Gcase activation) | + (less than 30% Gcase activation) |  |  | 
Cc1cc(C)n2ccc(C(=O)Nc3ccc4c(c3)CCC4)c2n1 [III-148] |  |  |  | 0.06 (≈ 0.196 µM) | > 20 | > 60
Cc1cc(C)n2ccc(C(=O)Nc3ccc(C)c(-c4ncco4)c3)c2n1 [III-149] |  |  |  | < 1.5 | > 20 | > 60
Cc1cc(C)n2ccc(C(=O)Nc3ccc(-c4ncco4)cc3C)c2n1 [III-150] |  |  |  | 0.1 (≈ 0.289 µM) | > 20 | > 60
Cc1cc(C)n2ccc(C(=O)NC3CCCc4cnccc43)c2n1 (stereo not drawn) [III-151] |  |  |  | 16.2 (≈ 50.6 µM) | < 10 | < 30
Cc1cc(C)n2ccc(C(=O)NC3CCCCC34CCCCO4)c2n1 (stereo not drawn) [III-152] |  |  |  | 6.7 (≈ 19.6 µM) | 10 to 20 | > 60
Cc1cc(C)n2ccc(C(=O)NCC3CCC(F)(F)CC3)c2n1 [III-153] |  |  |  | 15.3 (≈ 47.6 µM) | 10 to 20 | 30 to 60
CCCCCO[C@H]1CC[C@H](NC(=O)c2ccn3c(COC)cc(COC)nc23)CC1 [III-154] |  |  |  | 10.6 (≈ 25.4 µM) | > 20 | > 60
COCc1cc(COC)n2ccc(C(=O)NC3(C)CCOc4cc(F)c(F)cc43)c2n1 (stereo not drawn) [III-155] |  |  |  | 2.1 (≈ 4.87 µM) | 10 to 20 | > 60
C#Cc1ccc(C(C)(C)NC(=O)c2ccn3c(COC)cc(COC)nc23)cc1 [III-156] |  |  |  | 13.9 (≈ 35.5 µM) | 10 to 20 | > 60
C#Cc1cccc(C(C)(C)NC(=O)c2ccn3c(COC)cc(COC)nc23)c1 [III-157] |  |  |  | 2.6 (≈ 6.64 µM) | > 20 | > 60
[2H]c1c(C([2H])([2H])[2H])nc2c(C(=O)Nc3ccc(-c4cocn4)cc3)cc([2H])n2c1C([2H])([2H])[2H] [III-158] |  |  |  | 0.07 (≈ 0.206 µM) | > 20 | > 60
[2H]c1c(C([2H])([2H])[2H])nc2c(C(=O)NC3(C)CCOc4ccccc43)cc([2H])n2c1C([2H])([2H])[2H] (stereo not drawn) [III-159] |  |  |  | 4.9 (≈ 14.3 µM) | > 20 | > 60
[2H]c1c(C([2H])([2H])[2H])nc2c(C(=O)NC(C)(C)c3ccc(F)cc3)cc([2H])n2c1C([2H])([2H])[2H] [III-160] |  |  |  | 1.6 (≈ 4.8 µM) | > 20 | > 60
O=C(N[C@H]1CCCc2ccccc21)c1ccn2c(C3CC3)ccnc12 [III-161] |  |  |  | 0.9 (≈ 2.72 µM) | < 10 | 30 to 60
CC(C)c1ccnc2c(C(=O)N[C@H]3CCCc4ccccc43)ccn12 [III-162] |  |  |  | 1 (≈ 3 µM) | < 10 | > 60
[2H]C1(NC(=O)c2ccn3c(C)cc(NC(C)=O)nc23)CCOc2ccccc21 (stereo not drawn) [III-163] |  |  |  | 2.5 (≈ 6.84 µM) | < 10 | < 30
CC[C@H](NC(=O)c1ccn2c(C)cc(C)nc12)c1ccccc1 [III-164] |  |  |  | 1.4 (≈ 4.55 µM) | > 20 | > 60
Cc1cc(C)n2ccc(C(=O)N[C@H](C)c3ccccc3)c2n1 [III-165] |  |  |  | 1.1 (≈ 3.75 µM) | > 20 | > 60
Cc1cc(C)n2ccc(C(=O)N[C@@H](C)c3ccccc3)c2n1 [III-166] |  |  |  | 2 (≈ 6.82 µM) | 10 to 20 | > 60

Compound | Compound Solubility in Water [1] [µg/mL] | Percent Gcase Activation, 0.1 μM Test Compound [2] | Percent Gcase Activation, 1 μM Test Compound [2] | solubility [1] [µg/mL] | activation at 0.1 µM [2] [%] | activation at 1 µM [2] [%]
Cc1cc(C)n2ccc(C(=O)NC3CCCc4ccccc43)c2n1 (stereo not drawn) [III-167] |  |  |  | 0.8 (≈ 2.5 µM) | > 20 | > 60
Cc1cc(C)n2ccc(C(=O)N[C@@H]3CCCc4ccccc43)c2n1 [III-168] |  |  |  | 0.7 (≈ 2.19 µM) | > 20 | > 60
Cc1cc(C)n2ccc(C(=O)NC3CC4CCC(C3)O4)c2n1 (stereo not drawn) [III-169] |  |  |  | 29.3 (≈ 97.9 µM) | < 10 | < 30
COCCOc1ccc2c(c1)C(NC(=O)c1ccn3c(C)cc(C)nc13)CCO2 (stereo not drawn) [III-170] |  |  |  | 9.2 (≈ 23.3 µM) | < 10 | 30 to 60
Cc1cc(C)n2ccc(C(=O)NC3CCOc4c(F)ccc(F)c43)c2n1 (stereo not drawn) [III-171] |  |  |  | 1.7 (≈ 4.76 µM) | > 20 | > 60
Cc1cc(C)n2ccc(C(=O)NC3CCOc4ccc(F)c(F)c43)c2n1 (stereo not drawn) [III-172] |  |  |  | 1.5 (≈ 4.2 µM) | > 20 | > 60
Cc1cc(C)n2ccc(C(=O)NC3(C)CCOc4ccc(F)c(F)c43)c2n1 (stereo not drawn) [III-173] |  |  |  | 0.06 (≈ 0.162 µM) | 10 to 20 | > 60
Cc1cc(C)n2ccc(C(=O)NC3(C)CCOc4cc(F)c(F)cc43)c2n1 (stereo not drawn) [III-174] |  |  |  | 3.8 (≈ 10.2 µM) | > 20 | > 60
CCCCCOC1CCC(NC(=O)c2ccn3c(C)cc(C)nc23)C1 (stereo not drawn) [III-176] | 4.6 |  |  |  | 10 to 20 | > 60
CCCCCOC1CCC(NC(=O)c2ccn3c(C)cc(C)nc23)C1 (stereo not drawn) [III-177] | 17.2 | *** (greater than 20% Gcase activation) | +++ (Gcase activation greater than 60%) |  |  | 
CCCCCO[C@H]1CC[C@H](NC(=O)c2ccn3c(C)cc(C)nc23)C1 [III-178] |  |  |  | 9.2 (≈ 26.8 µM) | > 20 | > 60
CCCCCO[C@H]1CC[C@@H](NC(=O)c2ccn3c(C)cc(C)nc23)C1 [III-179] |  |  |  | 12.3 (≈ 35.8 µM) | < 10 | > 60
CCCCCO[C@@H]1CC[C@H](NC(=O)c2ccn3c(C)cc(C)nc23)C1 [III-180] | 10.4 | * (less than 10% Gcase activation) | +++ (Gcase activation greater than 60%) |  |  | 
Cc1cc(C)n2ccc(C(=O)NC3(C)CCOc4ccccc43)c2n1 (stereo not drawn) [III-181] |  |  |  | 1.8 (≈ 5.37 µM) | > 20 | > 60
CCCCO[C@H]1CC2CCC(C1)[C@H]2NC(=O)c1ccn2c(C)cc(C)nc12 [III-182] |  |  |  | 0.6 (≈ 1.62 µM) | > 20 | > 60
C#Cc1ccc(NC(=O)c2ccn3c(C)cc(C)nc23)c(OCCOC)c1 [III-183] |  |  |  | 0.04 (≈ 0.11 µM) | > 20 | > 60
Cc1cc(C)n2ccc(C(=O)NC3CCCCC34CCOCC4)c2n1 (stereo not drawn) [III-184] |  |  |  | 19.5 (≈ 57.1 µM) | 10 to 20 | > 60
CCCCO[C@H]1C2CCC1C[C@@H](NC(=O)c1ccn3c(C)cc(C)nc13)C2 [III-185] |  |  |  | 3.1 (≈ 8.39 µM) | > 20 | > 60
Cc1cc(C)n2ccc(C(=O)NC3CC=C(c4cccs4)CC3)c2n1 (stereo not drawn) [III-186] |  |  |  | 0.2 (≈ 0.569 µM) | > 20 | > 60
Cc1cc(C)n2ccc(C(=O)NC3CCC(c4cccs4)CC3)c2n1 (stereo not drawn) [III-187] | 0.4 |  |  |  | > 20 | > 60
